{"source": "patent US20090169700A1", "about": "“Healthy Food Product” (priority 2006, published 2009)", "note": "Ends that are not written are not given here.", "data": [{"test": "Water solubility at 20° C. and pH 6.5 (turbid appearance, 10 mg peptide in 10 ml de-mineralised water)", "assay_type": "physicochemical", "experimental": "Peptides for use in food products according to the invention are water-insoluble in water at 20° C. and a pH of 6.5. This can for example be evidenced by mixing 10 mg of the peptide into 10 ml of de-mineralised water at 20° C. and pH 6.5, and stirring. A (measurable) turbid appearance of the solution after stirring is indicative of the fact that the peptide is water-insoluble.", "values": [{"compound": "AAAAAAAA [AAAAAAAA]", "Peptide category (water solubility)": "Insoluble peptides"}, {"compound": "LLLLLL [LLLLLL]", "Peptide category (water solubility)": "Insoluble peptides"}, {"compound": "EAEWEY [EAEWEY]", "Peptide category (water solubility)": "Soluble peptides"}, {"compound": "GSGGSG [GSGGSG]", "Peptide category (water solubility)": "Soluble peptides"}, {"compound": "C[C@H](N)C(=O)N[C@@H](C)C(=O)N[C@@H](C)C(=O)N[C@@H](C)C(=O)N[C@@H](C)C(=O)N[C@@H](C)C(=O)O", "note": "[AAAAAA]", "Peptide category (water solubility)": "Insoluble peptides"}, {"compound": "VEWEME [VEWEME]", "Peptide category (water solubility)": "Soluble peptides"}, {"compound": "DDDDDD [DDDDDD]", "Peptide category (water solubility)": "Soluble peptides"}]}]}
